Here are results for 16 compounds from ChEMBL document CHEMBL1158540, “Heterocyclic cycloalkanol ethylamines as norepinephrine reuptake inhibitors” (Bioorg Med Chem Lett, 2010).

Bounds are passed on as bounds.

Data set [1] addresses T1, Sodium-dependent noradrenaline transporter (Homo sapiens, UniProt P23975). The data set is described as follows: Inhibition of human NET transfected in MDCK-Net6 cells at 1 uM. It is filed as cell-based.
For data set [2], the target named is T1, Sodium-dependent noradrenaline transporter.
Data set [3] concerns Rattus norvegicus. Description: Effect on temperature homeostasis in telemetric ovariectomy-induced thermoregulatory dysfunction rat model assessed as maximum reduction of tail skin temperature from baseline at 30 mg/kg, ip fter 6 hrs. It is filed as functional. Conditions: route intraperitoneal.
Data set [4] addresses T2, Sodium-dependent dopamine transporter (Homo sapiens, UniProt Q01959). Description: biochemical.
Description: Displacement of [3H]WIN-35428 form human DAT expressed in CHO cell membranes
For data set [5], the system named is Rattus norvegicus. Description: Effect on temperature homeostasis in telemetric ovariectomy-induced thermoregulatory dysfunction rat model assessed as mean reduction of tail skin temperature from baseline at 30 mg/kg, ip after 6 hrs. It is filed as functional. Conditions: route intraperitoneal.
Data set [6] addresses T3, Sodium-dependent serotonin transporter (Homo sapiens, UniProt P31645). The data set is described as follows: Inhibition of human SERT expressed in human JAR cells at 1 uM. It is filed as cell-based.
Target sequence in this assay (P31645 whole entry, looked up): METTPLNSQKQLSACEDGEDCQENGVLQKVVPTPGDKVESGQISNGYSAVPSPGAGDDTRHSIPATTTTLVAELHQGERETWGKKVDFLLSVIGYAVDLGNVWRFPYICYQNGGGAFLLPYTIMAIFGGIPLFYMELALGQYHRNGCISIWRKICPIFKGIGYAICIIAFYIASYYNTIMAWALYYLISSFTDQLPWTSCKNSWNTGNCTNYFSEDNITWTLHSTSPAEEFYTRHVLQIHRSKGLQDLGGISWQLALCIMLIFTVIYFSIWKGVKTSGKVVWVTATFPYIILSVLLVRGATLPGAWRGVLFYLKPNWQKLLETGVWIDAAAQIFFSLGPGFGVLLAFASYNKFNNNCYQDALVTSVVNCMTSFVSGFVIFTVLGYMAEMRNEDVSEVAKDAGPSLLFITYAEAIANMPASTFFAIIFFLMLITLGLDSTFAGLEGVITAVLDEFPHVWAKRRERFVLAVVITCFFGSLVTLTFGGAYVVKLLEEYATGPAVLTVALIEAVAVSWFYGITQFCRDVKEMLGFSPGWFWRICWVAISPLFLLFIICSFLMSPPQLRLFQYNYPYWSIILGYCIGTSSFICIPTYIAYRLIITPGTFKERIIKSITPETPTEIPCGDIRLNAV
The target in data set [7] is T2, Sodium-dependent dopamine transporter. Description: Inhibition of [3H]WIN-35428 binding to human DAT expressed in CHO membranes at 1000 nM. It is filed as cell membranes.
Data set [8] can be described thus: Half life in rat microsomes. It is filed as ADME, Microsome.
The test system of data set [9] is Rattus norvegicus. The data set is described as follows: Effect on temperature homeostasis in telemetric ovariectomy-induced thermoregulatory dysfunction rat model assessed as mean reduction of tail skin temperature from baseline at 30 mg/kg, po after 3 hrs. It is filed as functional.
Data set [10] has as its system Rattus norvegicus. The data set is described as follows: Effect on temperature homeostasis in telemetric ovariectomy-induced thermoregulatory dysfunction rat model assessed as maximum reduction of tail skin temperature from baseline at 30 mg/kg, sc fter 6.5 hrs. It is filed as functional. Conditions: route subcutaneous.
For data set [11], the system named is Rattus norvegicus. Description: Effect on temperature homeostasis in telemetric ovariectomy-induced thermoregulatory dysfunction rat model assessed as maximum reduction of tail skin temperature from baseline at 30 mg/kg, po after 3 hrs. It is filed as functional.
Data set [12] concerns Rattus norvegicus. The data set is described as follows: Effect on temperature homeostasis in telemetric ovariectomy-induced thermoregulatory dysfunction rat model assessed as mean reduction of tail skin temperature from baseline at 30 mg/kg, sc after 6.5 hrs. It is filed as functional. Conditions: route subcutaneous.
Data set [13] concerns the target T3, Sodium-dependent serotonin transporter. It is filed as cell-based, JAR.
Target sequence in this assay (P31645 whole entry): as the sequence (P31645 whole entry, looked up) above
For data set [14], the system named is Rattus norvegicus. Description: Effect on temperature homeostasis in telemetric ovariectomy-induced thermoregulatory dysfunction rat model assessed as maximum reduction of tail skin temperature from baseline at 30 mg/kg, ip fter 5.5 hrs. Conditions: route intraperitoneal. It is filed as functional.
In data set [15] the test system is Rattus norvegicus. Description: Effect on temperature homeostasis in telemetric ovariectomy-induced thermoregulatory dysfunction rat model assessed as mean reduction of tail skin temperature from baseline at 30 mg/kg, ip after 5.5 hrs. It is filed as functional. Conditions: route intraperitoneal.

T2 sequence (Q01959 whole entry): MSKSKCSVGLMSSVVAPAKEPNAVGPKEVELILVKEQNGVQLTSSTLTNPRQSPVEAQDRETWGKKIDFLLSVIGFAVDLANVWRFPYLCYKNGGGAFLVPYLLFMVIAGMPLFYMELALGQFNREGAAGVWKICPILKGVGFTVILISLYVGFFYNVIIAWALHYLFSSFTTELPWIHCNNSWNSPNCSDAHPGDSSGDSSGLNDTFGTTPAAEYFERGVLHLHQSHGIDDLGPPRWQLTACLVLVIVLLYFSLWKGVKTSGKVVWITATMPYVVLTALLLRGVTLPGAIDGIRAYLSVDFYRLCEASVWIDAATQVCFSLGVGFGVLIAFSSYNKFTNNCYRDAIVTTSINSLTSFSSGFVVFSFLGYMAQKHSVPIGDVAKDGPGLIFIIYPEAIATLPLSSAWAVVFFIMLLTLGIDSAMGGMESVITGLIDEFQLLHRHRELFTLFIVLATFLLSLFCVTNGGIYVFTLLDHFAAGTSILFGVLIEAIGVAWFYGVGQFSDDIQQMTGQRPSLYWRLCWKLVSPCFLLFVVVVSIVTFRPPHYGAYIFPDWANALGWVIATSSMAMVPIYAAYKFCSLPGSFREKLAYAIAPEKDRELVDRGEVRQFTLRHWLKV
T1 sequence (P23975 whole entry): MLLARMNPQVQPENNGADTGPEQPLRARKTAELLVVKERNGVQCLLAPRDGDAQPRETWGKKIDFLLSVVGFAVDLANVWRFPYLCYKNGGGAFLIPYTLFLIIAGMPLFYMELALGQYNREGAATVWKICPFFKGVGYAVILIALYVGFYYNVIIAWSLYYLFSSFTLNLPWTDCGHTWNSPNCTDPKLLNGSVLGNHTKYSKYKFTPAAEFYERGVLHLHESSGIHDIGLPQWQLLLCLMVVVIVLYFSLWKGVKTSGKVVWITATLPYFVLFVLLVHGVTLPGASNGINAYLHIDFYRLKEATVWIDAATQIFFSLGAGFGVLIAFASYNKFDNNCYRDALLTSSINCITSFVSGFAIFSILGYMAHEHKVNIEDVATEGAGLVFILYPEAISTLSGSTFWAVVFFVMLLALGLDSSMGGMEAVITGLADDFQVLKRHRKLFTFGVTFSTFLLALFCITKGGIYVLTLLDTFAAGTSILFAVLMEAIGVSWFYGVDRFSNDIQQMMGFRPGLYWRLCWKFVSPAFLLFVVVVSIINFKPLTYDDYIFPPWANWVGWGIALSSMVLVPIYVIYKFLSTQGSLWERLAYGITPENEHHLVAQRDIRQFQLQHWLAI

For orientation: IC50 means the midpoint of a concentration-inhibition curve. In turn, `CN1CCN(CC(c2csc(Cl)c2)C2(O)CCCCC2)CC1` (stereo not given) had an INH in [1] of 88 µM. Further, the IC50 in data set [2] was 95 nM; in data set [4], 389 nM. Also, the Activity in the data set on Rattus norvegicus [3] was -4.2 °C; in the data set with Rattus norvegicus [5], -2.75 °C.
`OC1(C(CN2CCNCC2)c2ccc(Cl)s2)CCCCC1` (stereo not given) gave an INH in [1] of 50.8 µM.
In the case of `CN1CCN(C[C@@H](c2cccc(Cl)c2)C2(N)CCCCC2)CC1`, the IC50 came out at 576 nM in [2] and 30 nM in data set [4]. This compound came in with an INH in [6] of 32 µM.
Usually inhibition stands for the change of the read-out against control, counted positive when it falls. Read a high inhibition as a strong effect. In data set [1], `OC1(C(CN2CCNCC2)c2csc(Cl)c2)CCCCC1` (stereo not given) had an INH of 86 µM. In data set [2], this compound yielded an IC50 of 100 nM. The compound further showed an inhibition in data set [7] of 43%.
As usually defined, the half-life is how long it takes for the measured level to halve. Take `CN1CCN(CC(c2cccc(Cl)c2)C2(O)CCCCC2)CC1` (stereo not given): the IC50 in data set [2] is 56 nM; in data set [4] it was 247 nM; in [13], above 2000 nM. In addition, the half-life in [8] was below 1 min. Moreover, the Activity was -3.1 °C with Rattus norvegicus [9], -3.5 °C with Rattus norvegicus [10], -3.8 °C in the data set with Rattus norvegicus [11] and -2.6 °C with Rattus norvegicus [12].
On to `OC1(C(CN2CCNCC2)c2cc(Cl)sc2Cl)CCCCC1` (stereo not given), for which the values for the INH in data set [1] and in [6] were 94 µM and 12.2 µM, respectively. Further, 225 nM corresponded to half-maximal inhibition in [2] (IC50).
In turn, `CN1CCN(C[C@H](c2csc(Cl)c2)C2(O)CCCCC2)CC1` showed an INH in [1] of 91 µM. Also, the IC50 came to 57 nM in data set [2] and 212 nM in [4]. In addition, the Activity with Rattus norvegicus [14] is -4.6 °C; in the data set with Rattus norvegicus [15], -3.3 °C.
With `OC1(C(CN2CCNCC2)c2cnc3ccccc3c2)CCCCC1` (stereo not given), the INH in [1] was 19 µM.
In [1], `OC1(C(CN2CCNCC2)c2cccs2)CCCCC1` (stereo not given) gave an INH of 54 µM.
On the same count and under the same terms, the value for `Cn1cc(C(CN2CCNCC2)C2(O)CCCCC2)c2ccccc21` (stereo not given) was 32 µM.
In [1], `CN1CCN(C[C@H](c2cccc(Cl)c2)C2(O)CCCCC2)CC1` came in with an INH of 92 µM. Further, the IC50 in data set [2] is 30 nM; in [4], 175 nM.
On to `OC1(C(CN2CCNCC2)c2c[nH]c3ccccc23)CCCCC1` (stereo not given), for which the INH in data set [1] was 21 µM; in data set [6] it was 90 µM.
Consider `OC1(C(CN2CCNCC2)c2csc3ccccc23)CCCCC1` (stereo not given), for which the INH in data set [1] worked out at 82 µM; in [6], 48 µM. Also, the concentration for half-maximal inhibition (IC50) in data set [2] turned out to be 255 nM. The compound also displayed an inhibition in data set [7] of 51%.
The corresponding values for `OC1(C(CN2CCNCC2)c2cc3ccccc3s2)CCCCC1` (stereo not given) are 73 µM, 89 µM, 550 nM and 61%.
Take `OC1(C(CN2CCNCC2)c2ccsc2Cl)CCCCC1` (stereo not given): the INH in data set [1] was 55 µM; in [6] it was 34 µM. Also, in [2], it took 720 nM to reach half-maximal inhibition (IC50).
Turning to `CN1CCN(C[C@@H](c2csc(Cl)c2)C2(O)CCCCC2)CC1`, the INH in data set [1] turned out to be 0 µM. Also, the figures for the IC50 in [2] and in [4] were 18000 nM and above 6000 nM, respectively.
